# According to US20220372014A1, “NEUROPROTECTIVE COMPOUNDS AND METHODS OF USE THEREOF” (The Johns Hopkins University, priority 2019, published 2022):
# Entries after “also recorded” stand apart in the source; their conditions may differ.
# How the values were obtained:
# MIF = molecular target: T1, MIF (Homo sapiens, UniProt P14174); test: Nuclease assay of Example 3 (MIF inhibitory activity, Table 4); format: biochemical; details: nuclease assay of Example 3
# T1 sequence (P14174 1-115): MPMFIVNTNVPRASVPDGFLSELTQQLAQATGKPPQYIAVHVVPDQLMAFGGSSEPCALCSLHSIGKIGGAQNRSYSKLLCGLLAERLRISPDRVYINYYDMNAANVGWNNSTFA
# Procedure, shortened: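 Human genomic DNA (200 ng), pcDNA (200 ng) or PS^30-type substrates (1 μM) were incubated with MIF (0.25-8 μM final) in 10 mM Tris-HCl pH 7.0, 10 mM MgCl2, 1 mM DTT at 37 °C for 1 h (pcDNA, small substrates) or 4 h (genomic DNA). Cleavage was assessed by agarose or PAGE electrophoresis with EtBr staining and chemiluminescent detection of biotin-labelled DNA.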
# primary cortical neurons = test: α-syn PFF-induced cell death in mouse primary cortical neurons (Hoechst and PI staining); format: cell-based; details: for toxicity when applied to primary cortical neurons: FIG. 12G; for α-syn PFF-induced cell death in mouse cortical neurons: pre-treated before α-syn PFF, Hoechst/PI
# Procedure: Cell culture, transfection, primary neuronal culture and treatment. SH-SY5Y cells (ATCC) were cultured in DMEM containing 10% fetal bovine serum and penicillin/streptomycin at 37° C. under 5% C02. The cells were transfected using PolyFect reagent (Qiagen). Parthanatos was induced by the treatment of 50 μM MNNG for 15 min in SH-SY5Y cells. ABT-888 or PAAN/MIF inhibitors were pretreated with indicated concentration 1 h before MNNG treatment and cell death were assessed after 24 h. Primary cortical neurons from WT, PAAN/MIF KO, E22Q KI or P1G KI embryos were prepared as previously described See Kam et al. (2018) Science 362:eaat8407. Briefly, the cortex was dissected and cultured at embryonic day 16 in neurobasal media supplemented with B-27, 0.5 mM L-glutamine, penicillin and streptomycin (Invitrogen). Primary neurons were infected with AAV2-control, AAV2-PAAN/MIF WT, AAV2-PAAN/MIF E22Q, AAV2-PAAN/MIF E22A or AAV2-MIF P1G (ViGene Biosciences) at days in vitro (DIV) 4-5. ABT-888 or PAAN/MIF inhibitors were applied to neurons 1 h before α-syn PFF treatment. The neuron growth medium was replaced with fresh medium alone or including inhibitors every 3-4 days. α-syn PFF was added at DIV 7 and further incubated for indicated times followed by the cell death assay or biochemical experiments.
# Cell death and viability assessment. Primary cultured cortical neurons were treated with 5 μg/ml of α-syn PFF for 14 days and cell death was determined by staining of all nuclei with 7 μM Hoechst 33342 and dead cell nuclei with 2 μM propidium iodide (PI) (Invitrogen). The numbers of total and dead cells were counted with the Axiovision 4.6 software (Carl Zeiss). Cell viability was determined by fluorescence at an excitation wavelength 570 nm and an emission wavelength 585 nm using Alamar Blue (Invitrogen).
# [1] = molecular target: T2, PAAN/MIF thiol-protein oxidoreductase activity (Homo sapiens, UniProt P14174); test: Oxidoreductase activity assay (insulin reduction); format: biochemical; details: 10 μM compounds
# T2 construct: GST (N, cleaved yes); made in house; host or cells: Escherichia coli
# T2 sequence (P14174 1-115): T1 sequence (P14174 1-115)
# Procedure: Oxidoreductase activity assay. The thiol-protein oxidoreductase activity of PAAN/MIF was measured using insulin as the substrate as described previously. See Kudrin et al. (2006) J. Biol. Chem. 281:29641-51. Briefly, the insulin assay is based on the reduction of insulin and subsequent insolubilization of the insulin β-chain. The time-dependent increase in turbidity is then measured spectrophotometrically at 650 nm. The reaction was started by adding 5 μM PAAN/MIF WT in the presence or absence of 10 μM compounds (compounds 41, 56, 76, and 77) dissolved in 20 mM sodium phosphate buffer (pH 7.2), and 200 mM reduced glutathione (GSH) to ice-cold reaction mixture containing 1 mg/ml insulin, 100 mM sodium phosphate buffer (pH 7.2) and 2 mM EDTA. Insulin reduction was measured against the control solution (containing GSH) in the same experiment.
# [2] = Measurement of compounds in brain after oral gavage (HPLC-MS); format: in vivo, C57BL/6 mice; details: oral gavage 10 mg/kg
# Procedure: The concentrations of compounds in brain tissue were measured by LC/MS. […] Bars represent means±s.e.m. ***P<0.0005, two-way ANOVA followed by Tukey's post hoc test (n=3). […] Quantification of noncleaved substrate. Bars represent mean±s.e.m. ***P<0.0005, two-way ANOVA followed by Tukey's post hoc test (n=4). […] Intensity of noncleaved genomic DNA is shown in the graph. Bars represent mean±s.e.m. ***P<0.0005, two-way ANOVA followed by Tukey's post hoc test (n=4).
# Measurement of compound 121 in brain. Compound 56, compound 77, and compound 121 were resuspended in a vehicle solution and were administered at 10 mg/kg by oral gavage. After 2 h, mice were perfused with PBS and whole brain was isolated, weighed and grounded with a pestle to a very fine powder with liquid nitrogen. Then, 2-folds of acetonitrile were added to brain tissue sample and the mixture was centrifuged at 14,000 rpm, 4° C. for 10 m. The supernatant was used for analysis. The concentration of compounds in brain tissue were measured using HPLC-MS on a C-18 reverse phase HPLC column. Separations were achieved using a linear gradient of buffer B from 40% to 95% in A (A=0.1% formic acid in H20; B=0.1% formic acid in CH3CN) at a flow rate of 1 ml/min. Intracerebroventricular (ICV) injected brain samples at 0.5, 1, 2, 4 or 8 μM concentration were used for the standard curve.
compound,measurement,setting,value
COc1ccc(CC[C@H]2OC(=O)[C@@H]3CCCCN3C(=O)C(=O)C(C)(C)COC(=O)C=CCCN(C)C(=O)[C@@H]3CCCN3C(=O)[C@H](COC(C)(C)C)N(C)C(=O)C(c3ccccc3)NC(=O)CN(C)C(=O)COc3cccc2c3)cc1OC (some centres unmarked) [compound 41],(%) inhibition of MIF nuclease activity,MIF,82.0%
same,toxicity when applied to primary cortical neurons,primary cortical neurons,some toxicity
same,α-syn PFF-induced cell death in mouse cortical neurons,primary cortical neurons,attenuated
same,MIF's oxidoreductase activity,[1],Neither did they inhibit
COc1ccc(CC[C@H]2OC(=O)[C@@H]3CCCCN3C(=O)C(=O)C(C)(C)COC(=O)C=CCCN(C)C(=O)[C@@H]3CCCN3C(=O)[C@H](COC(C)(C)C)N(C)C(=O)C(c3ccccc3)NC(=O)[C@H](C)N(C)C(=O)COc3cc(F)cc2c3)cc1OC (mixture of isomers) [compound 121],(%) inhibition of MIF nuclease activity,MIF,71.2%
same,α-syn PFF-induced cell death in mouse cortical neurons,primary cortical neurons,protected
same,levels detected in the brain relative to compound 56,[2]; 2 h,~3 fold
COc1ccc(CC[C@H]2OC(=O)[C@@H]3CCCCN3C(=O)C(=O)C(C)(C)COC(=O)C=CCCN(C)C(=O)[C@@H]3CCCN3C(=O)[C@H](CO)N(C)C(=O)C(c3ccccc3)NC(=O)[C@H](C)N(C)C(=O)COc3cccc2c3)cc1OC (some centres unmarked) [compound 97],(%) inhibition of MIF nuclease activity,MIF,−5.3%
COc1ccc(CC[C@H]2OC(=O)[C@@H]3CCCCN3C(=O)C(=O)C(C)(C)COC(=O)C=CCCN(C)C(=O)[C@@H]3CCCN3C(=O)[C@H](COC(C)(C)C)N(C)C(=O)C(c3ccccc3)NC(=O)[C@H](C)N(C)C(=O)COc3cccc2c3)cc1OC (some centres unmarked) [compound 56],(%) inhibition of MIF nuclease activity,MIF,70.8%
same,α-syn PFF-induced cell death in mouse cortical neurons,primary cortical neurons,attenuated; also recorded: protected
same,MIF's oxidoreductase activity,[1],Neither did they inhibit
same,concentration at 2 h,"[2]; C57BL/6, mouse, brain, read-out: achievable concentration in brain",< 500 nM
same,ability to cross the blood brain barrier (BBB),[2]; 2 h,crossed the BBB
COc1ccc(CC[C@H]2OC(=O)[C@@H]3CCCCN3C(=O)C(=O)C(C)(C)COC(=O)C=CCCN(C)C(=O)CNC(=O)[C@H](C(C)C)N(C)C(=O)[C@@H](Cc3ccccc3)NC(=O)[C@H](CC(C)C)N(C)C(=O)CCC(=O)Nc3cccc2c3)cc1OC [compound 76],(%) inhibition of MIF nuclease activity,MIF,73.5%
same,toxicity when applied to primary cortical neurons,primary cortical neurons,some toxicity
same,MIF's oxidoreductase activity,[1],Neither did they inhibit
COc1ccc(CC[C@H]2OC(=O)[C@@H]3CCCCN3C(=O)C(=O)C(C)(C)COC(=O)C=CCCN(C)C(=O)[C@H](C)NC(=O)[C@H](C(C)C)N(C)C(=O)[C@@H](Cc3ccccc3)NC(=O)[C@H](CC(C)C)N(C)C(=O)CCC(=O)Nc3cccc2c3)cc1OC [compound 77],(%) inhibition of MIF nuclease activity,MIF,75.5%
same,α-syn PFF-induced cell death in mouse cortical neurons,primary cortical neurons,attenuated
same,MIF's oxidoreductase activity,[1],Neither did they inhibit
same,ability to cross the blood brain barrier (BBB),[2]; 2 h,only compound 56 crossed the BBB
